Columns and labels:
5-LOX = molecular target: T1, 5-LOX (Homo sapiens, UniProt P09917); assay: Fluorometric 5-LOX inhibitor screening kit; type: biochemical; conditions: for 5-LOX Percent of İnhibition: at 10 µM
T1 construct: purchased MyBioSource
T1 sequence (P09917 1-674): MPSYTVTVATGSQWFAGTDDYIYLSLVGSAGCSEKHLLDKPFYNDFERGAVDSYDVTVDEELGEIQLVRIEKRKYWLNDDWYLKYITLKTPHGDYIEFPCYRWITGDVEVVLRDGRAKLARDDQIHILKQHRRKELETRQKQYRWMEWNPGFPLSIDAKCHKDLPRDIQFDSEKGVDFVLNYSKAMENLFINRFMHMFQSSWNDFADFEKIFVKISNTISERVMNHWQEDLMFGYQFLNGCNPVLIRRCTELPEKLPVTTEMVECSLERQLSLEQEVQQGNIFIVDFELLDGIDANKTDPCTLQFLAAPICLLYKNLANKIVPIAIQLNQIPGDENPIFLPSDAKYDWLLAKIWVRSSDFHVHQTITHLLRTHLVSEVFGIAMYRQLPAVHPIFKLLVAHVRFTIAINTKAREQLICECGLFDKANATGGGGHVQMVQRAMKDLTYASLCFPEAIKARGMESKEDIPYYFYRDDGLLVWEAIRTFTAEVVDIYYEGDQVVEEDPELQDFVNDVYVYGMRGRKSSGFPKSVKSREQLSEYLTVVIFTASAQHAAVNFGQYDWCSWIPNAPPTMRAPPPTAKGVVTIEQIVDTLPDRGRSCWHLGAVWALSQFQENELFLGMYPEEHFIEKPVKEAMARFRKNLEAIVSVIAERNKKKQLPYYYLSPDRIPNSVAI
Procedure: COX-1 and COX-2 inhibitory activities were tested using fluorometric COX-1 and COX-2 inhibitor screening kits (Abcam, United Kingdom), and the 5-LOX inhibitory activity was tested using a fluorometric 5-LOX inhibitor screening kit (MyBioSource, USA). These assays are based on the fluorometric detection of Prostaglandin G2 (a product generated by the COX enzyme) or on the fluorometric detection of the intermediate generated by the 5-LOX enzyme. The experiments were conducted in accordance with the manufacturers’ instructions.
For the determination of 5-LOX inhibitory activity, tested compounds were dissolved in DMSO (5 mM stock solution) and then diluted with the same solvent to obtain the test solutions. Test solutions were added to wells in an amount of 2 µL in the final 100 µL reaction volume. […] EC, SC, IC, and all test solutions were analyzed in triplicate.

MIA PaCa-2 cell line = assay: 2D anticancer activity, MTT assay; type: cell-based; conditions: Homo sapiens, 72 h exposure, read-out: IC50 in 2D cultured MIA PaCa-2 cell line
Procedure: For the preliminary assessment of anticancer activity in a 2D cell culture system, an MIA PaCa-2 human pancreas epithelial carcinoma (CRL-1420™) cell line (ATCC, Manassas, VA, USA) was cultured in Dulbecco’s Modified Eagle Medium with 10% fetal bovine serum (FBS, v/v) (Gibco, Billings, MT, USA) and supplemented with 1% antibiotics (10,000 μg/mL streptomycin and 10,000 U/mL penicillin) (Gibco, Billings, MT, USA) at 37 °C in a humidified 5% CO2 atmosphere. For the in vitro modeling of the tumor microenvironment, compounds were also tested in a 3D spheroid test system. For this purpose, the MIA PaCa-2 human pancreas epithelial carcinoma (CRL-1420™) cell line and human dermal fibroblast cell line HDF (PCS-201-012) cells were used.
For the assessment of anticancer activity of the compounds, the MIA PaCa-2 cells were plated in 48-well microplates at 1.5 × 10^5 cells/mL and incubated for 24 h at 37 °C in 5% CO2 in accordance with a previously reported method. Following the day, the cells were treated with compounds in various concentrations between 0.1–100 µM dissolved in dimethyl sulfoxide (DMSO) (Sigma Aldrich, St. Louis, MO, USA). Following the 72 h of incubation, culture mediums were discarded and 0.5 mg/mL 3-(4,5-Dimethylthiazol-2-yl)-2,5-Diphenyltetrazolium Bromide (MTT) (Sigma Aldrich, St. Louis, MO, USA) was added to each well for an additional 2 h at 37 °C. After 2 h incubation, the medium was discarded and 100 µL of isopropanol (Sigma Aldrich, St. Louis, MO, USA) was added to the wells to dissolve formazan crystals. The optical density was measured at 570 nm wavelength using a microplate reader (Thermo Fisher Scientific Multiskan, Finland). Doxorubicin hydrochloride (DOX) (European Pharmacopoeia standard, Sigma) was used as internal positive control, and 0.5% DMSO (v/v) was used as negative control. The percentage of cell viability was determined by using the following equation:(1) Viability %=(Absorbancecompound)/(Absorbancenegative control)×100%

COX-2 = molecular target: T2, COX-2 (Homo sapiens, UniProt P35354); assay: Fluorometric COX-2 inhibitor screening kit; conditions: for COX-2 Percent of İnhibition: at 10 µM; for IC50: COX-2 IC50
T2 sequence (P35354 18-604): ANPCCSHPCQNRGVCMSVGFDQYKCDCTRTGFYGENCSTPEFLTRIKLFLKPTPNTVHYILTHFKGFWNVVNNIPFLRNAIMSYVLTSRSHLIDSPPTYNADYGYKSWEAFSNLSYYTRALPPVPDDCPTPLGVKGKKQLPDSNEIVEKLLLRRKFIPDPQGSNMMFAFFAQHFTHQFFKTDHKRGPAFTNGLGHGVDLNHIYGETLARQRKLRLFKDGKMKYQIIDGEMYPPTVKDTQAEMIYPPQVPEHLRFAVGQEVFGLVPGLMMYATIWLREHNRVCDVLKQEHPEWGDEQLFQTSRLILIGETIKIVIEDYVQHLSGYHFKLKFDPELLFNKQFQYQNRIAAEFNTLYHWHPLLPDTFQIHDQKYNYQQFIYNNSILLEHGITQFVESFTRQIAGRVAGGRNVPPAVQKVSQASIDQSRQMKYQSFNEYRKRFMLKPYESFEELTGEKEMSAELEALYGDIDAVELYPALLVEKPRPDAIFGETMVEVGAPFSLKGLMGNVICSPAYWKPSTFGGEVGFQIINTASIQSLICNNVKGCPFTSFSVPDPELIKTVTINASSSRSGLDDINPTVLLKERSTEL
Procedure: For the determination of COX-1 and COX-2 inhibitory activity, the tested compounds were dissolved in dimethyl sulfoxide (DMSO, 5 mM stock solution) and then diluted with the same solvent to obtain the test solutions. The test solutions were further diluted 5× with COX Assay Buffer (2 µL of test solution: 8 µL COX Assay Buffer). […] Solvent Control (SC) was prepared by adding 2 µL DMSO and 8 µL COX Assay Buffer, while Sample (S) and Enzyme Control (EC) were prepared by adding 10 µL of diluted test solution and COX Assay Buffer, respectively, into assigned wells.

SMILES: O=C(N/N=C/c1ccccc1O)c1cc(-c2ccccc2)c(-c2ccccc2)s1 [7a, N’-[(E)-(2-hydroxyphenyl)methylidene]-4,5-diphenylthiophene-2-carbohydrazide]
- IC50 (5-LOX): 3.78 ± 0.39 µM
- 5-LOX Percent of İnhibition (5-LOX): 64.38 ± 0.46%
- IC50 (MIA PaCa-2 cell line): 7.51 ± 0.08 µM
- COX-2 Percent of İnhibition (COX-2): 13.57 ± 0.38%
- melting point: 238 °C

SMILES: O=C(N/N=C/c1ccc(O)cc1)c1cc(-c2ccccc2)c(-c2ccccc2)s1 [7c, N’-[(E)-(4-hydroxyphenyl)methylidene]-4,5-diphenylthiophene-2-carbohydrazide]
- IC50 (5-LOX): 2.6 ± 0.11 µM
- 5-LOX Percent of İnhibition (5-LOX): 55.05 ± 1.37%
- IC50 (MIA PaCa-2 cell line): 42.8 ± 3.59 µM
- IC50 (COX-2): 10.1 ± 0.25 µM
- COX-2 Percent of İnhibition (COX-2): 51.97 ± 2.51%
- melting point: 256 °C

SMILES: COc1ccccc1/C=N/NC(=O)c1cc(-c2ccccc2)c(-c2ccccc2)s1 [7d, N’-[(E)-(2-methoxyphenyl)methylidene]-4,5-diphenylthiophene-2-carbohydrazide]
- 5-LOX Percent of İnhibition (5-LOX): 15.61 ± 0.66%
- IC50 (MIA PaCa-2 cell line): 9.09 ± 1.04 µM
- COX-2 Percent of İnhibition (COX-2): 16.74 ± 3.36%
- melting point: 263 °C

SMILES: COc1cc(/C=N/NC(=O)c2cc(-c3ccccc3)c(-c3ccccc3)s2)ccc1O [7e, N’-[(E)-(3-methoxy-4-hydroxyphenyl)methylidene]-4,5-diphenylthiophene-2-carbohydrazide]
- IC50 (5-LOX): 3.3 ± 0.07 µM
- 5-LOX Percent of İnhibition (5-LOX): 60.69 ± 0.54%
- IC50 (MIA PaCa-2 cell line): > 100 µM
- IC50 (COX-2): 13.9 ± 0.76 µM
- COX-2 Percent of İnhibition (COX-2): 49.41±1.12%
- melting point: 234 °C

SMILES: COc1ccc(/C=N/NC(=O)c2cc(-c3ccccc3)c(-c3ccccc3)s2)cc1O [7f, N’-[(E)-(3-hydroxy-4-methoxyphenyl)methylidene]-4,5-diphenylthiophene-2-carbohydrazide]
- IC50 (5-LOX): 2.94 ± 0.2 µM
- 5-LOX Percent of İnhibition (5-LOX): 60.56 ± 2.49%
- IC50 (MIA PaCa-2 cell line): 4.86 ± 0.19 µM
- IC50 (COX-2): 39 ± 3.41 µM
- COX-2 Percent of İnhibition (COX-2): 38.41 ± 0.85%
- melting point: 249 °C
